From paper PMC8876975, “EGFR and COX-2 Dual Inhibitor: The Design, Synthesis, and Biological Evaluation of Novel Chalcones” (Molecules, 2022)

Assays:
[1] = biological target: T1, human recombinant COX-2 (Homo sapiens, UniProt P35354); assay: Cyclooxygenase assay (PGE2 quantification), COX-2; assay type: biochemical; settings: mean ± SD; n = 3
T1 construct: purchased Cayman Chemicals
T1 sequence (P35354 18-604): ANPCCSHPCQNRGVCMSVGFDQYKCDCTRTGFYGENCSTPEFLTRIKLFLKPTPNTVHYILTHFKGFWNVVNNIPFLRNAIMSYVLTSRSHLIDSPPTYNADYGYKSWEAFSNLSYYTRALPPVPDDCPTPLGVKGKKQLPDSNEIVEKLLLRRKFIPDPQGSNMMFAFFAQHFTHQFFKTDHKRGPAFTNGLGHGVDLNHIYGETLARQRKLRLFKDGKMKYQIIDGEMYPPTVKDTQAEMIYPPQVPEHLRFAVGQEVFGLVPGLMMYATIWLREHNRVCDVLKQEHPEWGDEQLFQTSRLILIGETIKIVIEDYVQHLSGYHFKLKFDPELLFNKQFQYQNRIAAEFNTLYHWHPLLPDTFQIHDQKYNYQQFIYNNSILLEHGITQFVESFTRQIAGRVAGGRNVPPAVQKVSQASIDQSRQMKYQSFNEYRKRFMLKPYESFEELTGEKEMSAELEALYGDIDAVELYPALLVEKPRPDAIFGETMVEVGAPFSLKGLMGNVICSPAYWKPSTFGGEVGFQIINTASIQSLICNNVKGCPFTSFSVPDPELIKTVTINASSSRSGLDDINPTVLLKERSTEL

[2] = system: TNF-α; assay: ELISA, LPS-induced TNF-α release in RAW264.7 macrophages; assay type: cell-based, mouse; settings: for inhibition at 10 µM: Mus musculus, RAW264.7, RAW 264.7, compound 10 µM for 2 h, then LPS 0.5 µg/mL for 22 h; for Relative Amount of LPS (TNF-α): RAW 264.7, compound 10 µM, TNF-α relative to LPS control = 100
[3] = biological target: T2, human recombinant sPLA2-V (Homo sapiens, UniProt P39877); assay: Secretory PLA2-V activity assay (Ellman's photometric method)
T2 sequence (P39877 21-138): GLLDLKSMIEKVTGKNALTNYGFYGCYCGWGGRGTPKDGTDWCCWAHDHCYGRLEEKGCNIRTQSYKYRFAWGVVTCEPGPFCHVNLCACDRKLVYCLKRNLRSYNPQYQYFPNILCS

[4] = biological target: T3, Sheep-derived COX-1 (Ovis aries, UniProt P05979); assay: Cyclooxygenase assay (PGE2 quantification), COX-1
T3 sequence (P05979 25-600): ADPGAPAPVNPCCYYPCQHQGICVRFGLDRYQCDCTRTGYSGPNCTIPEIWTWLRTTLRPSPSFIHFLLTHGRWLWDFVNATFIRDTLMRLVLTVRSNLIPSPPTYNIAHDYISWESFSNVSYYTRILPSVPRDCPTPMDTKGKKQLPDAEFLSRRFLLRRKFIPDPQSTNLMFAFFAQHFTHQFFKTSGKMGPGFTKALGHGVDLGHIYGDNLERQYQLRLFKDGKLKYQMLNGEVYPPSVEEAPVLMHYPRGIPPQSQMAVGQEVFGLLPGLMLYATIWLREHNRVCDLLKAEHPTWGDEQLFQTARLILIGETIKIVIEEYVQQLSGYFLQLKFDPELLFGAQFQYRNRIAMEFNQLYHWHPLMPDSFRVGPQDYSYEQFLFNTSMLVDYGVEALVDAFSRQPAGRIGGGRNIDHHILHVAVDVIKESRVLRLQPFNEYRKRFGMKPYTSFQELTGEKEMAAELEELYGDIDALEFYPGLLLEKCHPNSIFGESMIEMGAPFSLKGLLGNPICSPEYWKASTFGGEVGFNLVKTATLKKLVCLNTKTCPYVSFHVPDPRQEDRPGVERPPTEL

[5] = Cell viability % (MTT, normal cell line); settings: human, MRC5 normal fetal lung fibroblast cells
[6] = system: lung cancer (H-460); assay: MTT cytotoxicity assay, H-460; assay type: cell-based; settings: Homo sapiens, NCI-H460; H-460, MTT, 72 h; read-out: Antiproliferative Activity IC50 ± SEM, H-460
[7] = system: pancreatic cancer (PaCa-2); assay: MTT cytotoxicity assay, PaCa-2; assay type: cell-based; settings: PaCa-2, MTT, 72 h; read-out: Antiproliferative Activity IC50 ± SEM, PaCa-2
[8] = system: pancreatic ductal cancer (Panc-1); assay: MTT cytotoxicity assay, Panc-1; assay type: cell-based; settings: Homo sapiens; Panc-1, MTT, 72 h; read-out: Antiproliferative Activity IC50 ± SEM, Panc-1
[9] = system: IL-6; assay: ELISA, LPS-induced IL-6 release in RAW264.7 macrophages; assay type: cell-based, mouse; settings: for inhibition at 10 µM: Mus musculus, RAW264.7, RAW 264.7, compound 10 µM for 2 h, then LPS 0.5 µg/mL for 22 h; for Relative Amount of LPS (IL-6): RAW 264.7, compound 10 µM, IL-6 relative to LPS control = 100
[10] = system: human colon cancer (HT-29); assay: MTT cytotoxicity assay, HT-29; assay type: cell-based; settings: Homo sapiens; HT-29, MTT, 72 h; read-out: Antiproliferative Activity IC50 ± SEM, HT-29
[11] = system: human malignant melanoma (A375); assay: MTT cytotoxicity assay, A375; assay type: cell-based; settings: Homo sapiens, A-375, 72 h, read-out: Antiproliferative Activity IC50 ± SEM, A375
[12] = biological target: T4, EGFR (Homo sapiens, UniProt P00533); assay: EGFR kinase inhibition assay (EGFR Kinase Assay Kit); assay type: biochemical; settings: triplicates; read-out: EGFR Inhibition IC50 ± SEM
T4 construct: purchased PBS Bioscience (so in the source)
T4 sequence (P00533 25-1210): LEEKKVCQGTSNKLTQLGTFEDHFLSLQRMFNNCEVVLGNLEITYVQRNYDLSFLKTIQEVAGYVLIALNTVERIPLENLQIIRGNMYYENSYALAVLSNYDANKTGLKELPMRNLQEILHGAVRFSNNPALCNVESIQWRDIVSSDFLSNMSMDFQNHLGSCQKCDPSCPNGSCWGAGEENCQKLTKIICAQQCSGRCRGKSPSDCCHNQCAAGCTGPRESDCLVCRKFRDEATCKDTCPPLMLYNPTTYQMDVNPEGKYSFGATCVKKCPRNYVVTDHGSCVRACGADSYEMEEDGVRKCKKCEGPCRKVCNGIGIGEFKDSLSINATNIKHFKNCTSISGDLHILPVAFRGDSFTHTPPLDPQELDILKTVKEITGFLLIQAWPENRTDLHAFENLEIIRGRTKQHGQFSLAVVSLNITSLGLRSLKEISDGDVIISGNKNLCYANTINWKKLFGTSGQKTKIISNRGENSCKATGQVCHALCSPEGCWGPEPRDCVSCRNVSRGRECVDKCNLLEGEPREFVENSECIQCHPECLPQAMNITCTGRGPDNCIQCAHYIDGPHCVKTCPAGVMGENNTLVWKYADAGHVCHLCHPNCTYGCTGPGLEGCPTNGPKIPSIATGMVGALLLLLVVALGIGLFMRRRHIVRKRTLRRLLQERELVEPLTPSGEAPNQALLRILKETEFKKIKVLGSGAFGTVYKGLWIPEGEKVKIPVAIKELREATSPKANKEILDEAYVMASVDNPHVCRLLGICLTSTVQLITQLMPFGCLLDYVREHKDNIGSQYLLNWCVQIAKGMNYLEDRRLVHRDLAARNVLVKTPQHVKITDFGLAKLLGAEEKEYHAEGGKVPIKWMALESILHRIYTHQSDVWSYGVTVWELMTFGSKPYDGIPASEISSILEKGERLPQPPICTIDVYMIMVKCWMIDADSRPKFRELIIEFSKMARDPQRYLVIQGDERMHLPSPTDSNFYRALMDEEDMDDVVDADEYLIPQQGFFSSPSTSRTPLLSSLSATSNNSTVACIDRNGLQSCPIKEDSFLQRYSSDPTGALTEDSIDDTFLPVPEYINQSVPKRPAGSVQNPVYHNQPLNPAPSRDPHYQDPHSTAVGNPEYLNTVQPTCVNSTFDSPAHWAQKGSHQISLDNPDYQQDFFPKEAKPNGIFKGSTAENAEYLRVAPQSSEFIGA

For `O=C(/C=C/c1ccc(F)cc1)c1cccc(/N=N\c2ccc(O)c(C(=O)O)c2)c1` [Compound C9, 5. -((Z)-(3-((E)-3-(4-Fluorophenyl)acryloyl)phenyl)diazenyl)-2-hydroxybenzoic acid], the IC50 [1] was 1.27 ± 0.3 µM, the inhibition at 10 µM [2] was 74% and the “Relative Amount of LPS (TNF-α)” value [2] was 26. It also gave an IC50 [3] of 2.74 ± 1.24 µM, an IC50 [4] of 8.57 ± 1.89 µM and a viability at 72 h [5] of 90.2 ± 4.1%. The IC50 [6] was 1.2 ± 0.2 µM, the IC50 [7] was 2.1 ± 0.3 µM and the IC50 [8] was 1.8 ± 0.4 µM. For the same compound, the inhibition at 10 µM [9] was 77%, the “Relative Amount of LPS (IL-6)” value [9] was 23 and the IC50 [10] was 1.2 ± 0.3 µM. For the same compound, the IC50 [11] was 3.2 ± 1.1 µM and the IC50 [12] was 0.8 ± 0.3 µM.
With `CC(=O)c1cccc(/N=N/c2ccc(O)c3ccccc23)c1` [Compound A4, (E)-1-(3-((4-Hydroxynaphthalen-1-yl)diazenyl)phenyl)ethan-1-one] the IC50 [1] was 16.8 ± 2.43 µM, the inhibition at 10 µM [2] was 49% and the “Relative Amount of LPS (TNF-α)” value [2] was 51. It also gave an IC50 [3] of 14.1 ± 1.52 µM, an IC50 [4] of 11.1 ± 1.05 µM and a viability at 72 h [5] of 87.4 ± 1.7%. For the same compound, the IC50 [6] was 3.4 ± 1 µM, the IC50 [7] was 2 ± 0.6 µM and the IC50 [8] was 2 ± 0.4 µM. The inhibition at 10 µM [9] was 46%, the “Relative Amount of LPS (IL-6)” value [9] was 54 and the IC50 [10] was 2.7 ± 0.6 µM. For the same compound, the IC50 [11] was 4.4 ± 1.9 µM and the IC50 [12] was 3.2 ± 0.8 µM.
`CN(C)c1ccc(/C=C/C(=O)c2cccc(/N=N/c3ccc(O)cc3O)c2)cc1` [Compound C14, (E)-1-(3-((E)-(2,4-Dihydroxyphenyl)diazenyl)phenyl)-3-(4-(dimethylamino)phenyl) prop-2-en-1-one] showed an IC50 [1] of 5.14 ± 1.1 µM, an IC50 [3] of 7.04 ± 1.29 µM and an IC50 [4] of 11.5 ± 1.2 µM. For the same compound, the viability at 72 h [5] was 89.4 ± 2.1%, the IC50 [6] was 5.2 ± 1.3 µM and the IC50 [7] was 5.9 ± 1.9 µM. The IC50 [8] was 4.6 ± 1.7 µM, the IC50 [10] was 6.5 ± 1.4 µM and the IC50 [11] was 4.9 ± 1.6 µM.
Compound `CC(=O)c1cccc(/N=N/c2ccc(O)cc2)c1` [Compound A1] has a viability at 72 h [5] of 80.3 ± 1.6%, an IC50 [6] of 7.4 ± 2.2 µM and an IC50 [7] of 8.6 ± 1.2 µM. It also gave an IC50 [8] of 9.1 ± 1.8 µM, an IC50 [10] of 8.3 ± 2.1 µM and an IC50 [11] of 9.3 ± 1.9 µM.
For `CN(C)c1ccc(/C=C/C(=O)c2cccc(/N=N\c3ccc(O)c4ncccc34)c2)cc1` [Compound C18, (E)-3-(4-(dimethylamino)phenyl)-1-(3-((Z)-(8-hydroxyquinolin-5-yl)diazenyl)phenyl) prop-2-en-1-one], the IC50 [1] was 3.2 ± 0.6 µM, the inhibition at 10 µM [2] was 71% and the “Relative Amount of LPS (TNF-α)” value [2] was 29. For the same compound, the IC50 [3] was 8.29 ± 0.88 µM, the IC50 [4] was 40.2 ± 3.42 µM and the viability at 72 h [5] was 88.4 ± 2.9%. It also gave an IC50 [6] of 6.3 ± 1.4 µM, an IC50 [7] of 6.4 ± 1.5 µM and an IC50 [8] of 6.4 ± 0.4 µM. For the same compound, the inhibition at 10 µM [9] was 73%, the IC50 [10] was 6.7 ± 0.6 µM and the IC50 [11] was 8.8 ± 2.5 µM.
`CN(C)c1ccc(/C=C/C(=O)c2cccc(/N=N/c3ccc(O)cc3)c2)cc1` [Compound C13, (E)-3-(4-(Dimethylamino)phenyl)-1-(3-((E)-(4-hydroxyphenyl)diazenyl)phenyl)prop-2-en-1-one] showed an IC50 [1] of 19.2 ± 1.52 µM, an IC50 [3] of 5.06 ± 1.2 µM and an IC50 [4] of 18.3 ± 1.27 µM. It also gave a viability at 72 h [5] of 90.6 ± 1.7%, an IC50 [6] of 6.6 ± 1.2 µM and an IC50 [7] of 7.4 ± 1.7 µM. The IC50 [8] was 8.7 ± 1.4 µM, the IC50 [10] was 7.8 ± 1.8 µM and the IC50 [11] was 8.4 ± 1.5 µM.
In the case of `CC(=O)c1cccc(/N=N/c2c(O)ccc3ccccc23)c1` [Compound A5, (E)-1-(3-((2-Hydroxynaphthalen-1-yl)diazenyl)phenyl)ethan-1-one], the IC50 [1] is reported as 14.2 ± 1.79 µM, the IC50 [3] is reported as 4.24 ± 1.16 µM and the IC50 [4] is reported as 9.23 ± 1.64 µM. The viability at 72 h [5] was 88.2 ± 1.2%, the IC50 [6] was 9.2 ± 1.2 µM and the IC50 [7] was 10.5 ± 1.9 µM. The IC50 [8] was 9.6 ± 1.8 µM, the IC50 [10] was 11.9 ± 2.5 µM and the IC50 [11] was 9.6 ± 2.4 µM.
`O=C(/C=C/c1ccc(F)cc1)c1cccc(/N=N/c2ccc(O)cc2)c1` [Compound C7, (E)-3-(4-Fluorophenyl)-1-(3-((E)-(4-hydroxyphenyl)diazenyl)phenyl) prop-2-en-1-one] gave an IC50 [1] of 29.4 ± 1.73 µM, an IC50 [3] of 24.7 ± 1.59 µM and an IC50 [4] of 7.52 ± 1.42 µM. For the same compound, the viability at 72 h [5] was 82.6 ± 1.2%, the IC50 [6] was 5 ± 1.4 µM and the IC50 [7] was 2.9 ± 1.7 µM. For the same compound, the IC50 [8] was 4.8 ± 1.6 µM, the IC50 [10] was 4.5 ± 1.7 µM and the IC50 [11] was 5.3 ± 1.5 µM. It also gave an IC50 [12] of 5.8 ± 1.1 µM.
